From ChEMBL document CHEMBL2074349, “Rifampicin enhances anti-cancer drug accumulation and activity in multidrug-resistant cells” (Biochem Pharmacol, 1995)
One block for each molecule: values may come before it.

Columns and labels:
[1] = target: Multidrug resistance protein 1a (Rattus norvegicus) (UniProt Q6PSM0); test: TP_TRANSPORTER: increase in Vinblastine intracellular accumulation (Vinblastine: 0.0125 uM, Rifamycin B: 200 uM) in RHC1 cells; type: functional, cell-based
[2] = target: Multidrug resistance protein 1a (Rattus norvegicus) (UniProt Q6PSM0); test: TP_TRANSPORTER: increase in Vinblastine intracellular accumulation (Vinblastine: 0.0125 uM, Rifamycin SV: 200 uM) in RHC1 cells; type: functional, cell-based
[3] = target: Multidrug resistance protein 1a (Rattus norvegicus) (UniProt Q6PSM0); test: TP_TRANSPORTER: increase in Vinblastine intracellular accumulation (Vinblastine: 0.0125 uM, Rifampicin: 200 uM) in RHC1 cells; type: functional, cell-based
[4] = target: ATP-dependent translocase ABCB1 (Homo sapiens, UniProt P08183); test: TP_TRANSPORTER: inhibition of Azidopine photoaffinity labelling (Rifampicin: 200 uM) in membranes from K562 R7 cells; type: functional, cell membranes, Membrane; details: k562/r7, 200 µM
Chain of ATP-dependent translocase ABCB1 (P08183 whole entry): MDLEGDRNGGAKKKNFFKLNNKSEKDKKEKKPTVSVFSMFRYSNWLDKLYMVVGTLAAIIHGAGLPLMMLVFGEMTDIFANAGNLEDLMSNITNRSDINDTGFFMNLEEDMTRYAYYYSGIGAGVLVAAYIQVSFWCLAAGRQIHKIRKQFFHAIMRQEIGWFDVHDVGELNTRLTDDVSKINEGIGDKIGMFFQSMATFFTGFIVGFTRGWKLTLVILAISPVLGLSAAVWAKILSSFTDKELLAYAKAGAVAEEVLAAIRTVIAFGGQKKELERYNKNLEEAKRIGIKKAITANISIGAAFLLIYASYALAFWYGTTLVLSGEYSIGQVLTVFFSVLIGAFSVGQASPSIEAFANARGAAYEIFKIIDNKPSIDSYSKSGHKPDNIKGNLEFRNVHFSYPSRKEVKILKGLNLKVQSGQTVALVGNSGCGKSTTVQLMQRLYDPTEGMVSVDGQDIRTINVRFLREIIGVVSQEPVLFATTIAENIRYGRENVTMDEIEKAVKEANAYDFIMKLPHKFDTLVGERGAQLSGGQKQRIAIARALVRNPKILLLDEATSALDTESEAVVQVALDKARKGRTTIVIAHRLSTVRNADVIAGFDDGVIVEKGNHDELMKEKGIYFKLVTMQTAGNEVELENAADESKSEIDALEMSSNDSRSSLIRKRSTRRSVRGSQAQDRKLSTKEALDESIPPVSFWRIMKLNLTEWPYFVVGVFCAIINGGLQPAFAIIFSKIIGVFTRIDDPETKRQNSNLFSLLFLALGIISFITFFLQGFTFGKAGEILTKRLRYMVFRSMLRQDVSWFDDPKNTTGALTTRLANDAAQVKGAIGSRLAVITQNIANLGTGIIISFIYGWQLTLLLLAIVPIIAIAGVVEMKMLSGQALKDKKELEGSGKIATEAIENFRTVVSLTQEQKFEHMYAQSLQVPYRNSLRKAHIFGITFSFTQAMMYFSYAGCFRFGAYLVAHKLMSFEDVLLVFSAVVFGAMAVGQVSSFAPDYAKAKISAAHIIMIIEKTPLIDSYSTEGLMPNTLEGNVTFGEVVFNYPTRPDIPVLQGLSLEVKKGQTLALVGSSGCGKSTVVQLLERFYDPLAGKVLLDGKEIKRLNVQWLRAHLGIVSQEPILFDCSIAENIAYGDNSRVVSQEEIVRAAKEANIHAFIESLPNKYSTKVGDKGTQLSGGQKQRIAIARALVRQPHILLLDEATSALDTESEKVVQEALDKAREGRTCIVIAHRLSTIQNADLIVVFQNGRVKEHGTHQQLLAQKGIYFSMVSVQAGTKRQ

Chain of Multidrug resistance protein 1a (Rattus norvegicus) (Q6PSM0 as listed by the source): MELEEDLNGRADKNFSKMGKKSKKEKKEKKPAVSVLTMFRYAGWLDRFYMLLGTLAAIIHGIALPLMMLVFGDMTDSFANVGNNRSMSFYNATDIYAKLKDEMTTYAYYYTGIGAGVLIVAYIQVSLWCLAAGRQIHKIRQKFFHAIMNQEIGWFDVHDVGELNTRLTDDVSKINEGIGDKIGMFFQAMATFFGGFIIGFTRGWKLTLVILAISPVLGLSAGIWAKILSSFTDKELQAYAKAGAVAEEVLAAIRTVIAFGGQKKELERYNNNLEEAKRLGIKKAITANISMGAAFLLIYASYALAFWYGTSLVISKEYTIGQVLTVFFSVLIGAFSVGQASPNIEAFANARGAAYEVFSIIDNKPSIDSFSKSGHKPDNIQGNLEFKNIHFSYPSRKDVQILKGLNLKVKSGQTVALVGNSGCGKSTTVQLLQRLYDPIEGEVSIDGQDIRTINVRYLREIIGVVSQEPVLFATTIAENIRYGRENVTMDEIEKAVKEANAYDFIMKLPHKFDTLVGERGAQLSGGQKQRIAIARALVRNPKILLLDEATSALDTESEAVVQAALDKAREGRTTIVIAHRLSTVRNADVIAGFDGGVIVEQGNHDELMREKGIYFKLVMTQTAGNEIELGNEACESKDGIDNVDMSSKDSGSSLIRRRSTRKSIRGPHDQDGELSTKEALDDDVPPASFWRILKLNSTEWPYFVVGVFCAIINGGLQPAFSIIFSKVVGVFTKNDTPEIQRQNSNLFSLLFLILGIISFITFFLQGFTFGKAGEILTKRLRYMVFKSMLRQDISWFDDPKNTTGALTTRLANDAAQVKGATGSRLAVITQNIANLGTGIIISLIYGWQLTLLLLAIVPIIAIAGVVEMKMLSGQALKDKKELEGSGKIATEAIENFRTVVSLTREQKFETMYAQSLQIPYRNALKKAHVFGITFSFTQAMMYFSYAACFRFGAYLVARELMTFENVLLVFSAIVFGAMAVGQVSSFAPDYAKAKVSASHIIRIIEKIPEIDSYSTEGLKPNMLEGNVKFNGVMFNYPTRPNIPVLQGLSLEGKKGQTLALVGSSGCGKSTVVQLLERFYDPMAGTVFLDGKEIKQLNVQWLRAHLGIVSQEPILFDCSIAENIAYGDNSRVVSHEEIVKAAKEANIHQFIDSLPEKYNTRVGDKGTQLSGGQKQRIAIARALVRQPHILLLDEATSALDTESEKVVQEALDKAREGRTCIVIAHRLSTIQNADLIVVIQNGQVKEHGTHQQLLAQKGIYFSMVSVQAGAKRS

Activity [1]: is not an inhibitor [-]
Compound: COC1/C=C/OC2(C)Oc3c(C)c(O)c4c(O)c(cc(OCC(=O)Nc5ccc(I)cc5)c4c3C2=O)NC(=O)/C(C)=C\C=C\C(C)C(O)C(C)C(O)C(C)C(OC(C)=O)C1C (centres undefined)

Activity [2]: inhibitor [+]
Compound: CO[C@H]1/C=C/O[C@@]2(C)Oc3c(C)c(O)c4c(O)c(cc(O)c4c3C2=O)NC(=O)/C(C)=C\C=C\[C@H](C)[C@H](O)[C@@H](C)[C@@H](O)[C@@H](C)[C@H](OC(C)=O)[C@@H]1C

Activity [3]: inhibitor [+]
Activity [4]: inhibitor [+]
Compound: CO[C@H]1/C=C/O[C@@]2(C)Oc3c(C)c(O)c4c(O)c(c(/C=N/N5CCN(C)CC5)c(O)c4c3C2=O)NC(=O)/C(C)=C\C=C\[C@H](C)[C@H](O)[C@@H](C)[C@@H](O)[C@@H](C)[C@H](OC(C)=O)[C@@H]1C [RIFAMPIN]
